Results reported in patent US20230146233A1, “A CLASS OF POLYCYCLIC COMPOUNDS INHIBITING RNA HELICASE DHX33 AND THE APPLICATION THEREOF” (Shenzhen KeYe Life Technologies, Co., Ltd, priority 2020, published 2023).

How the values were obtained:
U251-MG cells = assay: Half-maximal cell-inhibitory concentration on U251-MG cells (CCK-8); assay type: cell-based; details: Homo sapiens, U-251, U251-MG cells (DHX33-overexpressing cancer cell strain), 48 hours, read-out: IC50 (half-maximal inhibitory concentrations of compounds on U251-MG cells)
In short: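 […]-overexpressing glioma cells seeded at 1×10^4 cells/well, exposed to compound from 5 nM to 20 μM for 48 hours at 37° C, 5% CO2. Viability read by CCK-8 after 2 hours (OD 450 nm); IC50 from inhibition curves, three repeats.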

DHX33 protein = target: T1, DHX33 protein (Mus musculus, UniProt Q80VY9); assay: Inhibition of the helicase activity of DHX33 protein in vitro; assay type: biochemical; details: recombinant DHX33 protein, compound 1-1000 nM, 37° C., 60 minutes; read-out: IC50 (inhibitory effects of the compounds on the helicase activity of DHX33 protein)
T1 construct: purified full-length DHX33 protein; made in house; host or cells: E. coli BL-21pLysS (DE3)
T1 sequence (Q80VY9 1-698): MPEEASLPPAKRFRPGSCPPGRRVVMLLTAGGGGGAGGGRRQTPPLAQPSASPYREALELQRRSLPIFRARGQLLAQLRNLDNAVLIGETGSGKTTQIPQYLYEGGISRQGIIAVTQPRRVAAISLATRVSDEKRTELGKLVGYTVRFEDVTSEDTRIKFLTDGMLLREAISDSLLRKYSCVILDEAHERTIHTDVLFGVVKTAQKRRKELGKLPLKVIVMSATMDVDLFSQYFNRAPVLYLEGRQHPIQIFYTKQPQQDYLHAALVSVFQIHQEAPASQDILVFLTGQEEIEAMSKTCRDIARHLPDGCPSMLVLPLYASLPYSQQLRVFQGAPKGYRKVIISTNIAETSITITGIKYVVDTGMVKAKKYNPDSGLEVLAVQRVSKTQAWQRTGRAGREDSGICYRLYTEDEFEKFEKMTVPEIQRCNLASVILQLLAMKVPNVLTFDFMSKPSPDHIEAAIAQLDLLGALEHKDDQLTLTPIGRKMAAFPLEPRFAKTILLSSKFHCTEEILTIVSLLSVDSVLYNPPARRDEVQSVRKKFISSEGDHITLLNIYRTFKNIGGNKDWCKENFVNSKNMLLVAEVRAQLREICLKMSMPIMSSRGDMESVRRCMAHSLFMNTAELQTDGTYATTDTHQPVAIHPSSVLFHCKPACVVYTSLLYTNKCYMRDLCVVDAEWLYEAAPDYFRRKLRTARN
Procedure: Biochemistry. 2019:58 (4):250-8. RNA helicase gene (mouse DHX33 gene) was cloned into a pET32M-3C vector (between BamH I/Not I restriction sites). Afterward, the plasmid was transformed into BL-21pLysS (DE3) E. coli. 0.5 mM isopropyl 1-thio-βp-D-galactopyranoside (IPTG) was added, and the expression of the recombinant protein was induced at 16° C. for 16 hours. Cells were allowed to precipitate and were resuspended in a cell lysis buffer [50 mM Tris-HCl (pH7.2), 150 mM NaCl, 1% Triton X-100, and 50 mM imidazole supplemented with a protease inhibitor]. Thereafter, cells were subjected to ultrasonic treatment and centrifuged at a rotation speed of 13000 rpm for 25 minutes. The supernatant was incubated with the nickel-nitrilotriacetic acid beads equilibrated in Tris buffer, followed by sufficient washing. Thereafter, the purified protein was eluted with a solution of 300 mM imidazole in Tris buffer, and was then subjected to dialysis against an imidazole-free Tris buffer at 4° C. overnight.
The components involved in the reaction for testing the helicase activity were added to a 96-well opaque white plate. The method was outlined as follows. The 96-well plate was coated with neutravidin at a final concentration of 10 μg/mL (100 μl/well) overnight at 4° C. Afterwards, the neutravidin-coated plate was blocked with 100 μL of 0.1% (w/v) BSA (dissolved in normal PBS) at 22° C. for 2 hours. After washing, a DNA duplex (2.5 ng) that was resulted from the annealing of two single-stranded DNA oligonucleotides (the sequence of one single strand was biotin-labeled 5′-[…]-3′; and the sequence of the other single strand was DIG-labeled 5′-[…]-3′) [the annealing reaction was carried out in PBS (pH 7.0) containing 1M NaCl] was added, and the resulting mixture was incubated at 22° C. for 4 hours. After the addition of 90 μL of the reaction mixture, the helicase reaction was initiated [0.25 pig of purified full-length DHX33 protein, dissolved in 25 mM 4-MOPS (pH 7.0), 5 mM ATP 2 mM DTT, 3 mM MnCl2 and 100 μg/mL BSA]. The reaction was conducted at 37° C. for 60 minutes. After being washed, each well was incubated with a blocking solution [10% (w/v) BSA in 0.1 M maleic acid and 0.15 M NaCl (pH 7.5)] for 30 minutes, and was then incubated with 20 μL of antibody solution (anti-DIG-AP, Roche, in blocking buffer) for 30 minutes. After being washed with 100 μL of detection buffer [0.1 M Tris-HCl and 0.1 M NaCl (pH 9.5)], each well was added with 1 μL of chemiluminescent substrate (CSPD-0.25 mM), and the plate was incubated at 17° C. for 5 minutes. Afterwards, the plate was patted dry and incubated at 37° C. for 30 minutes. The remaining DIG-AP marker control in each well was counted for 10 minutes by a luminescence multi-well plate reader (Enspire, PerkinElmer). Higher reading indicated weaker helicase activity.
Positive control and negative controls were set for this acticity assay. Among them, one negative control group, which differed from the experimental group only in that the former was not added with ATP (other conditions were the same as the experimental group), was used for the comparison with the experimental group; another negative control group, which differed from the experimental group only in that the former was not added with DHX33 protein (other conditions were the same as the experimental group), was used for the comparison with the experimental group. The positive control group was set for the comparison with the wild-type DHX33 protein (standard substance).
Biochemistry. 2019:58 (4):250-8.
Compounds having a series of concentration (the concentrations were set at 1 nM, 5 nM, 10 nM, 20 nM, 50 nM, 100 nM, 250 nM, 500 nM, and 1000 nM) were used to conduct the helicase activity assay of […] protein in vitro. The half-maximal inhibitory concentrations of the compounds of the present disclosure on the helicase activity of […] protein were as shown in Table 1.

Structure (SMILES)	IC50 (U251-MG cells) [nM]	IC50 (DHX33 protein) [nM]
COc1cc2nc(/C(C#N)=C/c3cc(C)n(Cc4cccs4)c3C)[nH]c2cn1 [AB24399, (E)-3-(2,5-dimethyl-1-(thiophen-2-ylmethyl)-1H-pyrrol-3-yl)-2-(6-methoxy-3H-imidazo[4,5-c]pyridin-2-yl)acrylonitrile]	< 100	< 20
COc1ccc2cc(NC(=O)c3cc(C)n(-c4sc(C)nc4C#N)c3C)[nH]c2c1 [AB29501]	< 100	< 20
COc1cc2nc(/C(C#N)=C/c3cc(C)n([C@@H](C)c4ccccc4)c3C)[nH]c2cn1 [AB29506, (S,E)-3-(2,5-dimethyl-1-(1-phenylethyl)-1H-pyrrol-3-yl)-2-(6-methoxy-3H-imidazo[4,5-c]pyridin-2-yl)acrylonitrile]	< 100	< 20

The remaining lines, values ahead:

IC50 (U251-MG cells) [nM]	IC50 (DHX33 protein) [nM]	Structure (SMILES)
5000 to 20000	400 to 1000	COc1cc2nc(/C(C#N)=C/c3cnc(-c4ccccc4)n3C)[nH]c2cn1 [AB29511, (E)-2-(6-methoxy-3H-imidazo[4,5-c]pyridin-2-yl)-3-(1-methyl-2-phenyl-1H-imidazol-5-yl)acrylonitrile]
5000 to 20000	400 to 1000	Cc1oc(-n2c(C)cc(/C=C(\C#N)c3nc4ccccc4[nH]3)c2C)c(C#N)c1C [Compound as control, reference compound]
